# pIC50: −log10 of the molar value. Peptide text beside a SMILES is read from it.
# Columns and labels:
# Caco-2 cell monolayers = assay: Bidirectional permeability and efflux in Caco-2 cells; assay type: in vitro ADME
# [1] = as above; assay type: in vitro ADME; conditions: human
# [2] = Single rising dose pharmacokinetics in beagle dogs; assay type: in vivo, beagle dog; conditions: for AUC(0-inf) / AUC(0-t) / Cmax / Tmax / half-life: male, beagle, dog, plasma, sc
# [3] = In vitro protein binding, rapid equilibrium dialysis; assay type: in vitro ADME; conditions: CD-1, mouse, plasma
# CYP3A = assay: CYP450 inhibition assay; assay type: in vitro ADME; conditions: human, pooled human liver microsomes
# [4] = In vitro protein binding, rapid equilibrium dialysis; assay type: in vitro ADME; conditions: cynomolgus monkey, plasma
# dog hepatocytes = assay: Metabolite identification in hepatocytes; assay type: in vitro ADME; conditions: cryopreserved dog hepatocytes, FC-12738 10 μM, 37 °C, 240 min, LC-UV-MS
# mouse hepatocytes = assay: Metabolite identification in hepatocytes; assay type: in vitro ADME; conditions: cryopreserved mouse hepatocytes, FC-12738 10 μM, 37 °C, 240 min, LC-UV-MS
# human hepatocytes [5] = assay: LDH release cytotoxicity in the CYP induction assay; assay type: cell-based; conditions: three donors, 0.100, 1.00, 3.00, 10.0 and 15.0 μM
# CYP2C9 = CYP2C9 (Homo sapiens, UniProt P11712); assay: CYP450 inhibition assay; assay type: in vitro ADME
# Chain of CYP2C9 (P11712 whole entry): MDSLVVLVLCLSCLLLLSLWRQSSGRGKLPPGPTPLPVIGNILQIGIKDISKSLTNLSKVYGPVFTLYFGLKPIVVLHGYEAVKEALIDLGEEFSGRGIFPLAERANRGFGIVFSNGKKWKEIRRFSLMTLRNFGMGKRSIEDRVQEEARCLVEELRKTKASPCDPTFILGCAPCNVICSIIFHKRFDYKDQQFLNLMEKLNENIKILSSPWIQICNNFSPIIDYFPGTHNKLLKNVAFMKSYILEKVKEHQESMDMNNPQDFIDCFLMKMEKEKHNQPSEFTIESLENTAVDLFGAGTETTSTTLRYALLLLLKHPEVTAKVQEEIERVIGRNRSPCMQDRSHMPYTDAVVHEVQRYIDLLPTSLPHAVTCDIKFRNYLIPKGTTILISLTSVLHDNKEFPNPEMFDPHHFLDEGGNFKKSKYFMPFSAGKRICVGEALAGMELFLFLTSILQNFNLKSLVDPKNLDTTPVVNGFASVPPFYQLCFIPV
# [6] = Single-dose pharmacokinetics in SD rats; assay type: in vivo, SD rat
# [7] = Excretion study in SD rats following single subcutaneous administration; assay type: in vivo, SD rat; conditions: for Accumulative Dose Recovery: 0 h, n=3, mean
# human hepatocytes [8] = assay: Hepatocyte stability; assay type: in vitro ADME; conditions: 1.00 μM
# CD-1 mouse hepatocytes = assay: Hepatocyte stability; assay type: in vitro ADME; conditions: 1.00 μM
# rat hepatocytes = assay: Metabolite identification in hepatocytes; assay type: in vitro ADME; conditions: cryopreserved rat hepatocytes, FC-12738 10 μM, 37 °C, 240 min, LC-UV-MS
# beagle dog hepatocytes = assay: Hepatocyte stability; assay type: in vitro ADME; conditions: 1.00 μM
# BCRP = BCRP (Homo sapiens, UniProt Q9UNQ0); assay: Inhibition of BCRP in Caco-2 cells; assay type: in vitro ADME
# Chain of BCRP (Q9UNQ0 whole entry): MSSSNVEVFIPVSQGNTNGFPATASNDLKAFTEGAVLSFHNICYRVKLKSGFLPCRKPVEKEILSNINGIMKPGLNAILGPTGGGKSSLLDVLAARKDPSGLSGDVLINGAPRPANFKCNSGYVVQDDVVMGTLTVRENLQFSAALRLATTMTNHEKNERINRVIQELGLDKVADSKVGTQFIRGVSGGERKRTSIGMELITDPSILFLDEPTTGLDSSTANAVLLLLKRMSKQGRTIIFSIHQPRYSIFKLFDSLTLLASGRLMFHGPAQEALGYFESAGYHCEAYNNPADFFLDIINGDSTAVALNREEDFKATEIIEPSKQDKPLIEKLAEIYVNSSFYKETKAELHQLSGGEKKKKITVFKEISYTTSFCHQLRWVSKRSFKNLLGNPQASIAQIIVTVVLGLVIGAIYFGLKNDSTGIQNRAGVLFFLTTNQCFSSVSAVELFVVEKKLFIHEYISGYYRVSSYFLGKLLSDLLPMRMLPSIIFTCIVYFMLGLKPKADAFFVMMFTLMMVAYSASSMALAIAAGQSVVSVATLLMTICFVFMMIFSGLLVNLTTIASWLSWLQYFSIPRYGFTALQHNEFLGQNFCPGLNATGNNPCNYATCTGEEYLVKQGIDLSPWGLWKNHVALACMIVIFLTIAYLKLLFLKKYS
# [9] = 2.00 μM, with 10.0 μM GF120918, Caco-2, 120 min
# [10] = 10.0 μM, with 10.0 μM GF120918, Caco-2, 120 min
# [11] = 10.0 μM, without GF120918, Caco-2, 120 min
# [12] = 100 μM, with 10.0 μM GF120918, Caco-2, 120 min
# [13] = 100 μM, without GF120918, Caco-2, 120 min
# [14] = male, SD, rat, plasma, iv, 2 mg/kg
# [15] = male, SD, rat, plasma, sc, 10 mg/kg
# [16] = male, SD, rat, urine, sc, 10 mg/kg
# [17] = male, Sprague-Dawley, rat, bile, sc, 10 mg/kg
# [18] = male, Sprague-Dawley, rat, feces, sc, 10 mg/kg
# [19] = male, Sprague-Dawley, rat, urine + feces, sc, 10 mg/kg
# [20] = male, Sprague-Dawley, rat, urine, sc, 10 mg/kg
smiles,measurement,setting,value
"CC(C)[C@@H](NC(=O)[C@H](N)Cc1ccc(O)cc1)C(=O)N[C@H](CC(=O)O)C(=O)N[C@H](CCCCN)C(=O)N[C@H](CCCNC(=N)N)C(=O)O [FC-12738, (D-Tyr)-(D-Val)-(D-Asp)-(D-Lys)-(D-Arg)] (HELM PEPTIDE1{[dY].[dV].[dD].[dK].[dR]}$$$$V2.0)",Mean %Solution Recovery A to B,Caco-2 cell monolayers; [9],<92.9%
same,Mean %Solution Recovery B to A,Caco-2 cell monolayers; [9],<96.5%
same,Mean %Solution Recovery A to B,Caco-2 cell monolayers; [10],89.9%
same,Mean %Solution Recovery B to A,Caco-2 cell monolayers; [10],96.5%
same,Mean %Solution Recovery A to B,Caco-2 cell monolayers; [11],90.2%
same,Mean %Solution Recovery B to A,Caco-2 cell monolayers; [11],100.5%
same,Efflux Ratio (ERi),Caco-2 cell monolayers; [12],1.23
same,Mean %Solution Recovery A to B,Caco-2 cell monolayers; [12],86.9%
same,Mean %Solution Recovery B to A,Caco-2 cell monolayers; [12],97.0%
same,Mean %Solution Recovery A to B,Caco-2 cell monolayers; [13],89.1%
same,Mean %Solution Recovery B to A,Caco-2 cell monolayers; [13],95.3%
same,Permeability across the Caco-2 cell monolayer (conclusion),"Caco-2 cell monolayers; 2.00, 10.0 and 100 μM",low permeable
same,"efflux ratio at 120 min, 10 μM",[1]; Caco-2,0.88
same,"efflux ratio at 120 min, 100 μM",[1]; Caco-2,1.24
same,"efflux ratio at 120 min, 10 μM","[1]; Caco-2, with GF120918 10.0 μM",1.13
same,Dose dependence of systemic exposure (AUC0-last and Cmax),"[2]; male beagle dogs, SC 1 to 25 mg/kg",increased with dose proportionally
same,AUC(0-inf),[2]; 1 mg/kg,2770 ng·h/mL
same,AUC(0-t),[2]; 1 mg/kg,2760 ng·h/mL
same,Cmax,[2]; 1 mg/kg,925 ng/mL
same,Tmax,[2]; 1 mg/kg,1 h
same,half-life,[2]; 1 mg/kg,57.4 min
same,AUC(0-inf),[2]; 5 mg/kg,16800 ng·h/mL
same,AUC(0-t),[2]; 5 mg/kg,16700 ng·h/mL
same,Cmax,[2]; 5 mg/kg,7090 ng/mL
same,Tmax,[2]; 5 mg/kg,1 h
same,half-life,[2]; 5 mg/kg,54.4 min
same,AUC(0-inf),[2]; 25 mg/kg,72800 ng·h/mL
same,AUC(0-t),[2]; 25 mg/kg,72800 ng·h/mL
same,Cmax,[2]; 25 mg/kg,33300 ng/mL
same,Tmax,[2]; 25 mg/kg,0.667 h
same,half-life,[2]; 25 mg/kg,121 min
same,"fraction unbound at 6 h, 0.2 µM",[3],0.449
same,"fraction unbound at 6 h, 2 µM",[3],0.455
same,"fraction unbound at 6 h, 10 µM",[3],0.479
same,pIC50,CYP3A,< 4.00
same,"fraction unbound at 6 h, 0.2 µM",[4],0.538
same,"fraction unbound at 6 h, 10 µM",[4],0.736
same,Relative Abundance (UV%),dog hepatocytes,80.76%
same,Relative Abundance (UV%),mouse hepatocytes,88.92%
same,Cytotoxicity (released LDH),human hepatocytes [5],no cytotoxicity
same,pIC50,CYP2C9,< 4.00
same,Tolerability / adverse effects in-life,"[6]; male SD rats, IV 2 mg/kg or SC 10 mg/kg single",No adverse effect was observed
same,AUC(0-inf),[6]; [14],2830 ng·h/mL
same,AUC(0-t),[6]; [14],2800 ng·h/mL
same,C0,[6]; [14],7830 ng/mL
same,Vd,[6]; [14],0.309 L/kg
same,clearance,[6]; [14],11.8 mL/min/kg
same,half-life,[6]; [14],19.1 min
same,AUC(0-inf),[6]; [15],13000 ng·h/mL
same,AUC(0-t),[6]; [15],13000 ng·h/mL
same,Cmax,[6]; [15],8430 ng/mL
same,Tmax,[6]; [15],25 min
same,bioavailability,[6]; [15],91.9%
same,half-life,[6]; [15],40.8 min
same,Accumulative Dose Recovery,"[7]; bile, male bile-duct-cannulated SD rats, SC 10 mg/kg single",0.00%
same,Accumulative Dose Recovery,"[7]; feces, male intact SD rats, SC 10 mg/kg single",0.00%
same,Tolerability / adverse effects in-life,"[7]; male SD rats, SC 10 mg/kg single, excretion study",No adverse effect was observed
same,dose excreted at 96 h,[7]; [16],86.4%
same,dose excreted at 120 h,[7]; [16],86.6%
same,dose excreted at 144 h,[7]; [16],86.7%
same,dose excreted at 4 h,[7]; [17],0.284%
same,dose excreted at 12 h,[7]; [17],0.314%
same,dose excreted at 24 h,[7]; [17],0.324%
same,dose excreted at 48 h,[7]; [17],0.331%
same,dose excreted at 72 h,[7]; [17],0.336%
same,dose excreted at 4 h,[7]; [18],0.00168%
same,dose excreted at 8 h,[7]; [18],0.00239%
same,dose excreted at 24 h,[7]; [18],1.74%
same,dose excreted at 48 h,[7]; [18],2.08%
same,dose excreted at 72 h,[7]; [18],2.14%
same,dose excreted at 96 h,[7]; [18],2.16%
same,dose excreted at 120 h,[7]; [18],2.18%
same,dose excreted at 144 h,[7]; [18],2.19%
same,dose excreted at 168 h,[7]; [18],2.19%
same,dose excreted at 4 h,[7]; [19],56.2%
same,dose excreted at 8 h,[7]; [19],78.2%
same,dose excreted at 24 h,[7]; [19],85.8%
same,dose excreted at 48 h,[7]; [19],88.2%
same,dose excreted at 72 h,[7]; [19],88.5%
same,dose excreted at 96 h,[7]; [19],88.6%
same,dose excreted at 120 h,[7]; [19],88.7%
same,dose excreted at 144 h,[7]; [19],88.9%
same,dose excreted at 168 h,[7]; [19],88.9%
same,dose excreted at 4 h,[7]; [20],56.2%
same,dose excreted at 8 h,[7]; [20],78.2%
same,dose excreted at 24 h,[7]; [20],84%
same,dose excreted at 48 h,[7]; [20],86.1%
same,dose excreted at 72 h,[7]; [20],86.4%
same,dose excreted at 168 h,[7]; [20],86.7%
same,Accumulative Dose Recovery,"[7]; total (urine + feces), male intact SD rats, SC 10 mg/kg single",0.00%
same,Accumulative Dose Recovery,"[7]; urine, male intact SD rats, SC 10 mg/kg single",0.00%
same,intrinsic clearance CLint(hep),"human hepatocytes [8]; cryopreserved human hepatocytes, 37.0°C, 120 min",< 1.9 μL/min/10^6 cells
same,half-life,"human hepatocytes [8]; cryopreserved human hepatocytes, 37.0°C, 120 min, LC-MS/MS",> 372.7 min
same,hepatic clearance CLint(liver),human hepatocytes [8]; scaled from human hepatocytes,< 5.2 mL/min/kg
same,intrinsic clearance CLint(hep),"CD-1 mouse hepatocytes; cryopreserved CD-1 mouse hepatocytes, 37.0°C, 120 min",< 1.9 μL/min/10^6 cells
same,half-life,"CD-1 mouse hepatocytes; cryopreserved CD-1 mouse hepatocytes, 37.0°C, 120 min, LC-MS/MS",> 372.7 min
same,hepatic clearance CLint(liver),CD-1 mouse hepatocytes; scaled from CD-1 mouse hepatocytes,< 22.1 mL/min/kg
same,Relative Abundance (UV%),rat hepatocytes,87.56%
same,intrinsic clearance CLint(hep),"beagle dog hepatocytes; cryopreserved beagle dog hepatocytes, 37.0°C, 120 min",< 1.9 μL/min/10^6 cells
same,half-life,"beagle dog hepatocytes; cryopreserved beagle dog hepatocytes, 37.0°C, 120 min, LC-MS/MS",> 372.7 min
same,hepatic clearance CLint(liver),beagle dog hepatocytes; scaled from beagle dog hepatocytes,< 12.8 mL/min/kg
same,pIC50,BCRP,< 4.00

# Source: doi:10.1101/2023.04.18.537371v1 (bioRxiv, 2023)
